One test has as its target T1, LRRK2^KW (Homo sapiens, UniProt Q5S007).
T1 construct: LRRK2 R1847 to E2527; His6-Z-tag (TEV cleavable) (N, cleaved yes); host or cells: Sf9 insect cells (baculovirus)
T1 sequence (Q5S007 1847-2527): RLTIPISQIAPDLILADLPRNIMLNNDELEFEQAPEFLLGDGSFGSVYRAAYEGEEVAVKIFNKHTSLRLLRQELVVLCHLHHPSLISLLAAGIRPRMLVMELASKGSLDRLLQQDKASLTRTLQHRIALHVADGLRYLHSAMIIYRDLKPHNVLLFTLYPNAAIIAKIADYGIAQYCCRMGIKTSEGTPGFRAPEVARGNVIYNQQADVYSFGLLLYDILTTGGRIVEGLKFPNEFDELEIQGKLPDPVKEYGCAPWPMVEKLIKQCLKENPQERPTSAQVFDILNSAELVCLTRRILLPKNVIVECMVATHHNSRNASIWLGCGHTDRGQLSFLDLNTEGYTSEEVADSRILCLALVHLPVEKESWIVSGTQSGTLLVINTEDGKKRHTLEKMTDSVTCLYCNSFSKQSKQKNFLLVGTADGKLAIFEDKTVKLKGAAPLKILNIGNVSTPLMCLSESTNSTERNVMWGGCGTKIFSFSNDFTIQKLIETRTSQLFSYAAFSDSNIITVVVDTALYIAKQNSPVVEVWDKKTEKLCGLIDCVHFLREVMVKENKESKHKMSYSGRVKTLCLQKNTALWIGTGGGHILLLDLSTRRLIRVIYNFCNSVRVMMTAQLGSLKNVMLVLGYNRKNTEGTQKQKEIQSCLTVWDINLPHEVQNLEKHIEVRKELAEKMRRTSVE
Put plainly: DSF thermal stabilization of LRRK2^KW. The format is binding. The settings on record: DSF, LRRK2^KW, 10 μM inhibitor. Here is the method: To characterize binding between small molecules and LRRK2^KW, induced thermal stabilization was measured by DSF according to previously established protocols ([47]). In brief, LRRK2^KW was diluted to 4 μM in 20 mM Hepes (pH 7.4), 150 mM NaCl, 0.5 mM TCEP, 0.5% glycerol, 20 μM GDP, and 2.5 mM MgCl2, and SYPRO Orange was added (1:1000, MilliporeSigma). Inhibitor (10 μM) to be tested was added to a final sample volume of 20 μl per well of a 96-well plate (white, Starlab). […] The fluorescence was plotted against the temperature, and the melting point (Tm) was determined as the minimum of the first derivative relative to the control.

A further test addresses T2, LRRK2^RCKW (Homo sapiens, UniProt Q5S007).
T2 construct: LRRK2 R1327 to E2527; His6-Z-tag (TEV cleavable) (N, cleaved yes); host or cells: Sf9 insect cells (baculovirus)
T2 sequence (Q5S007 1327-2527): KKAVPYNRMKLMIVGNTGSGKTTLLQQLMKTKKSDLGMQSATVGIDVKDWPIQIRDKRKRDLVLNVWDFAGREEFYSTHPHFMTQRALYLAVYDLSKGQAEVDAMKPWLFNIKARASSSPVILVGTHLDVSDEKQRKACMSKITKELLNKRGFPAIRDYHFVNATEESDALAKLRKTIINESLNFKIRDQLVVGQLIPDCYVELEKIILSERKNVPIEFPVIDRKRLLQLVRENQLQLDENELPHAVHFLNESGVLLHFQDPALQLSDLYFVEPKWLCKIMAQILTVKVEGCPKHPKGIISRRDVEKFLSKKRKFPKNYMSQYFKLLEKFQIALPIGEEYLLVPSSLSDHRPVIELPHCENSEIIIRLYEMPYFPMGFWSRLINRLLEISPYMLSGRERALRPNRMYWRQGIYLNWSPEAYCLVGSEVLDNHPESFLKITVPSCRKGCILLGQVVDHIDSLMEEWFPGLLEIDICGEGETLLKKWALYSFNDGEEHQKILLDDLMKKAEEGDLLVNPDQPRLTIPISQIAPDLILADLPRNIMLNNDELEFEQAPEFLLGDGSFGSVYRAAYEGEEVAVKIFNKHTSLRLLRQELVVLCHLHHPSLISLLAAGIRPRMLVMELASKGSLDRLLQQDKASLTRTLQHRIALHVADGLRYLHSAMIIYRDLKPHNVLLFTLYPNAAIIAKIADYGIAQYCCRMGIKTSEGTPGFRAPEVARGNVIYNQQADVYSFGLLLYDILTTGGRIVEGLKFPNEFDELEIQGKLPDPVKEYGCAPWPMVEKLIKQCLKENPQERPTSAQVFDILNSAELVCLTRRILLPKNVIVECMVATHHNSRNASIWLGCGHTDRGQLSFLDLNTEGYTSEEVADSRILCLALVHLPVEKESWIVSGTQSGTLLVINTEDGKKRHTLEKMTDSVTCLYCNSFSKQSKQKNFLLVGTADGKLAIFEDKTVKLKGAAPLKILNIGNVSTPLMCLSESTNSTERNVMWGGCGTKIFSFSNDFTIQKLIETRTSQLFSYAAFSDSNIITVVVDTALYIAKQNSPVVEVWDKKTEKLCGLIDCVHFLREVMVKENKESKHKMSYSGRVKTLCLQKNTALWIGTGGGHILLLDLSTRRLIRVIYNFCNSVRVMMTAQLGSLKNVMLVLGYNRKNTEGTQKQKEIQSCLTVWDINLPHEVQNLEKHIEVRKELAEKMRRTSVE
Nature of the test: Biochemical LRRK2 activity assay (PhosphoSense, AssayQuant SOX peptide AQT0615). The settings on record: for IC50: LRRK2^RCKW kinase activity, in vitro; for normalized response (LRRK2 activity): normalized to 0% (no kinase) and 100% (no inhibitor) control, two singlicate columns per compound. Here is the method: Two wells per compound were used as 0% (without protein and compound) and 100% (without compound) control. […] The 0% control wells were filled with 10 μl of pure reaction buffer. With the ECHO, 5 nl of 100 mM ATP was pipetted into each well, the plates were centrifuged at 1500g for 2 min, and the reaction was incubated at room temperature for 4 hours. The fluorescence of the SOX-peptide after 360-nm excitation was measured at 487-nm emission with a PHERAstar plate reader (BMG Labtech). The IC50 values were calculated from a nonlinear regression of the log[inhibitor] versus the normalized response with GraphPad Prism 8 (www.graphpad.com/, RRID:SCR_002798).

Values joined by “and” are separate entries in the source; they are usually repeats but may differ in a detail not shown here. Identical values can stand only once.

Regarding `O=C(Nc1ccc(F)cc1)C1(C(=O)Nc2cccc(-c3c[nH]c4ncnc(N5CCOCC5)c34)c2)CCCC1` [Compound 3], the “∆Tm (K)” value at LRRK2^KW is 6.0 K. Also, at LRRK2^RCKW, inhibition was half-maximal at 694 ± 1 nM (IC50). Besides, the “normalized response (LRRK2 activity)” value at LRRK2^RCKW (log[inhibitor(mol)] -4.82391) was -13.5275% and -8.323%; on LRRK2^RCKW (log[inhibitor(mol)] -5.12494), -11.1035% and -8.9537%; on LRRK2^RCKW (log[inhibitor(mol)] -5.60206) it was 14.4144% and 11.8039%; on LRRK2^RCKW (log[inhibitor(mol)] -6.30103) it was 58.5784% and 59.582%; at LRRK2^RCKW (log[inhibitor(mol)] -6.90309) it was 93.4358% and 94.7027%; on LRRK2^RCKW (log[inhibitor(mol)] -7.30103) it was 100.456% and 104.273%. Moreover, the “normalized response (LRRK2 activity)” value at LRRK2^RCKW (log[inhibitor(mol)] -7.60206) was 103.702% and 110.256%; on LRRK2^RCKW (log[inhibitor(mol)] -8.09691) it was 103.006% and 100.445%; on LRRK2^RCKW (log[inhibitor(mol)] -8.61979) it was 97.1047% and 100.867%; on LRRK2^RCKW (log[inhibitor(mol)] -9.09691), 96.2602% and 102.309%; at LRRK2^RCKW (log[inhibitor(mol)] -9.39794), 100.406% and 102.43%.
Turning to `Cc1ccc(NC(=O)C2(C(=O)Nc3ccc(F)cc3)CC2)cc1-c1c[nH]c2ncnc(N3CCOCC3)c12` [Compound 5], the “∆Tm (K)” value at LRRK2^KW worked out at 1.8 K. Besides, the midpoint of inhibition at LRRK2^RCKW, the IC50, lay at 9580 ± 565 nM. The “normalized response (LRRK2 activity)” value on LRRK2^RCKW (log[inhibitor(mol)] -5.12494) was 55.8562% and 55.0924%; at LRRK2^RCKW (log[inhibitor(mol)] -5.60206), 86.5066% and 85.5833%; at LRRK2^RCKW (log[inhibitor(mol)] -6.90309), 96.7944% and 101.803%; at LRRK2^RCKW (log[inhibitor(mol)] -7.30103), 96.688% and 103.084%; on LRRK2^RCKW (log[inhibitor(mol)] -7.60206) it was 102.717% and 103.476%; at LRRK2^RCKW (log[inhibitor(mol)] -8.09691) it was 97.9836% and 98.7571%. In addition, the “normalized response (LRRK2 activity)” value was 100.995% and 103.804% on LRRK2^RCKW (log[inhibitor(mol)] -8.61979); 100.705% and 102.156% on LRRK2^RCKW (log[inhibitor(mol)] -9.09691); 104.655% and 105.003% on LRRK2^RCKW (log[inhibitor(mol)] -9.39794).
Take `Cc1ccc(-c2c[nH]c3ncnc(N4CCOCC4)c23)cc1NC(=O)C1(C(=O)Nc2ccc(F)cc2)CC1` [Compound 7]: the “∆Tm (K)” value at LRRK2^KW is reported as 7.8 K. Further, the IC50 (usually the point on the concentration scale where inhibition reaches its midpoint) on LRRK2^RCKW is 10500 nM. For the same molecule, the “normalized response (LRRK2 activity)” value at LRRK2^RCKW (log[inhibitor(mol)] -4.82391) was 48.7254% and 32.1819%; at LRRK2^RCKW (log[inhibitor(mol)] -5.12494), 55.2664% and 57.3114%; on LRRK2^RCKW (log[inhibitor(mol)] -5.60206), 81.8607% and 85.9555%; on LRRK2^RCKW (log[inhibitor(mol)] -6.30103), 94.4496% and 98.762%; on LRRK2^RCKW (log[inhibitor(mol)] -6.90309) it was 100.265% and 101.228%; on LRRK2^RCKW (log[inhibitor(mol)] -7.30103) it was 105.467% and 108.576%. Besides, the “normalized response (LRRK2 activity)” value on LRRK2^RCKW (log[inhibitor(mol)] -7.60206) was 105.158% and 64.9692%; on LRRK2^RCKW (log[inhibitor(mol)] -8.09691), 97.331% and 101.237%; at LRRK2^RCKW (log[inhibitor(mol)] -8.61979) it was 106.173% and 99.8401%; at LRRK2^RCKW (log[inhibitor(mol)] -9.09691), 141.905% and 102.383%; on LRRK2^RCKW (log[inhibitor(mol)] -9.39794), 109.403% and 105.477%.
With `O=C(c1cccc(NC(=O)C2(C(=O)Nc3ccc(F)cc3)CC2)c1)c1c[nH]c2ncnc(N3CCOCC3)c12` [Compound 8], on LRRK2^KW, the “∆Tm (K)” value was found to be 7.0 K. This molecule returned an IC50 against LRRK2^RCKW of 912 ± 141 nM. Besides, the “normalized response (LRRK2 activity)” value is 4.225% and -5.581% on LRRK2^RCKW (log[inhibitor(mol)] -4.82391); 6.8846% and 7.148% on LRRK2^RCKW (log[inhibitor(mol)] -5.12494); 31.5798% and 32.6109% at LRRK2^RCKW (log[inhibitor(mol)] -5.60206); 61.7209% and 66.4318% at LRRK2^RCKW (log[inhibitor(mol)] -6.30103); 86.2516% and 93.0519% at LRRK2^RCKW (log[inhibitor(mol)] -6.90309); 93.3097% and 89.5476% on LRRK2^RCKW (log[inhibitor(mol)] -7.30103). The “normalized response (LRRK2 activity)” value was 86.8493% and 91.0776% at LRRK2^RCKW (log[inhibitor(mol)] -7.60206); 91.1928% and 88.5988% on LRRK2^RCKW (log[inhibitor(mol)] -8.09691); 102.068% and 96.0518% on LRRK2^RCKW (log[inhibitor(mol)] -8.61979); 105.369% and 96.9676% at LRRK2^RCKW (log[inhibitor(mol)] -9.09691); 104.196% and 102.019% on LRRK2^RCKW (log[inhibitor(mol)] -9.39794).
For `Cn1cc(NC(=O)C2(C(=O)Nc3cccc(-c4c[nH]c5ncnc(N6CCOCC6)c45)c3)CC2)cn1` [Compound 9], the “∆Tm (K)” value on LRRK2^KW amounted to 4.0 K. Further, half-maximal inhibition against LRRK2^RCKW (IC50) was put at 2110 ± 1190 nM. Further, the “normalized response (LRRK2 activity)” value was 49.186% and 49.8222% at LRRK2^RCKW (log[inhibitor(mol)] -5.60206); 82.8654% and 52.2345% at LRRK2^RCKW (log[inhibitor(mol)] -6.30103); 104.293% and 98.1919% on LRRK2^RCKW (log[inhibitor(mol)] -6.90309); 105.91% and 76.5961% at LRRK2^RCKW (log[inhibitor(mol)] -7.30103); 104.315% and 59.7541% at LRRK2^RCKW (log[inhibitor(mol)] -7.60206); 97.675% and 89.444% on LRRK2^RCKW (log[inhibitor(mol)] -8.09691). Moreover, the “normalized response (LRRK2 activity)” value at LRRK2^RCKW (log[inhibitor(mol)] -8.61979) was 99.5438% and 104.868%; at LRRK2^RCKW (log[inhibitor(mol)] -9.09691) it was 109.546% and 62.2548%; at LRRK2^RCKW (log[inhibitor(mol)] -9.39794), 105.46% and 118.944%.

The record behind these values is article PMC12136037, “Type II kinase inhibitors that target Parkinson’s disease–associated LRRK2” (Science Advances, 2025).
